System: adults with biopsy-confirmed NASH
Assay: MAESTRO-NASH: liver enzymes, imaging and biomarkers (MRI-PDFF, CAP, VCTE, MRE, liver and spleen volume, ELF)
Assay type: in vivo, human
Conditions: 80 mg
[1] = wk 48, baseline ALT ≥30 U per liter
[2] = week 52, baseline ELF score ≥9.8
[3] = week 52, baseline PIIINP ≥9 ng/mL
[4] = week 52, baseline TIMP-I ≥240 ng/ml
[5] = week 52, baseline hyaluronic acid ≥50 ng/ml

With `CC(C)c1cc(Oc2c(Cl)cc(-n3nc(C#N)c(=O)[nH]c3=O)cc2Cl)n[nH]c1=O` [Resmetirom, 2-(3,5-dichloro-4-((5-isopropyl-6-oxo-1,6-dihydropyridazin-3-yl)oxy)phenyl)-3,5-dioxo-2,3,4,5-tetrahydro-1,2,4-triazine-6-carbonitrile] the “Alanine aminotransferase level, difference from placebo” value (wk 48) was −19.7 percentage points, the “Aspartate aminotransferase level, difference from placebo” value (wk 48) was −19.3 percentage points and the “γ-Glutamyltransferase level, difference from placebo” value (wk 48) was −28.3 percentage points. For the same molecule, the “Alanine aminotransferase level, least-squares mean percent change from baseline” value [1] was −26.6 ± 3.7%, the “Aspartate aminotransferase level, least-squares mean percent change from baseline” value [1] was −22.1 ± 3.9% and the “γ-Glutamyltransferase level, least-squares mean percent change from baseline” value [1] was −25.0 ± 5.5%. The “MRI-PDFF, difference from placebo” value (wk 52) was −26.7 percentage points, the “MRI-PDFF, least-squares mean percent change from baseline” value (wk 52) was −35.4 ± 2.8% and the “MRE ≥19% increase from BL, no. of patients” value (F1B, responder analysis) was 0. The “MRE ≥19% reduction from BL, % of patients” value (F1B, responder analysis) was “(20.0) %”, the “MRE ≥19% reduction from BL, no. of patients” value (F1B, responder analysis) was 1 and the “VCTE/LSM improving >25%, % of patients” value (F1B, responder analysis) was “(50.0) %”. For the same molecule, the “VCTE/LSM improving >25%, no. of patients” value (F1B, responder analysis) was 6, the “VCTE/LSM improving ≥30%, % of patients” value (F1B, responder analysis) was “(41.7) %” and the “VCTE/LSM improving ≥30%, no. of patients” value (F1B, responder analysis) was 5. For the same molecule, the “VCTE/LSM worsening ≥25%, % of patients” value (F1B, responder analysis) was “(8.3) %”, the “VCTE/LSM worsening ≥25%, no. of patients” value (F1B, responder analysis) was 1 and the “VCTE/LSM worsening ≥30%, % of patients” value (F1B, responder analysis) was “(8.3) %”. For the same molecule, the “VCTE/LSM worsening ≥30%, no. of patients” value (F1B, responder analysis) was 1, the “FibroScan VCTE/LSM, LS mean CFB” value (F1B, week 52) was −3.7 kPa and the “FibroScan VCTE/LSM, LS mean CFB difference from PBO” value (F1B, week 52) was −3.1 kPa. The “MRE, LS mean % CFB” value (F1B, week 52) was −5.7%, the “MRE, LS mean % CFB difference from PBO” value (F1B, week 52) was −13.2% and the “MRE ≥19% increase from BL, no. of patients” value (F2, responder analysis) was 0. The “MRE ≥19% reduction from BL, % of patients” value (F2, responder analysis) was “(35.0) %”, the “MRE ≥19% reduction from BL, no. of patients” value (F2, responder analysis) was 7 and the “VCTE/LSM improving ≥25%, % of patients” value (F2, responder analysis) was “(44.0) %”. The “VCTE/LSM improving ≥25%, no. of patients” value (F2, responder analysis) was 37, the “VCTE/LSM improving ≥30%, % of patients” value (F2, responder analysis) was “(33.3) %” and the “VCTE/LSM improving ≥30%, no. of patients” value (F2, responder analysis) was 28. For the same molecule, the “VCTE/LSM worsening ≥25%, % of patients” value (F2, responder analysis) was “(11.9) %”, the “VCTE/LSM worsening ≥25%, no. of patients” value (F2, responder analysis) was 10 and the “VCTE/LSM worsening ≥30%, % of patients” value (F2, responder analysis) was “(8.3) %”. The “VCTE/LSM worsening ≥30%, no. of patients” value (F2, responder analysis) was 7, the “FibroScan VCTE/LSM, LS mean CFB” value (F2, week 52) was −2.3 kPa and the “FibroScan VCTE/LSM, LS mean CFB difference from PBO” value (F2, week 52) was 1.1 kPa. For the same molecule, the “MRE, LS mean % CFB” value (F2, week 52) was −1.9%, the “MRE, LS mean % CFB difference from PBO” value (F2, week 52) was 4.0% and the “MRE ≥19% increase from BL, % of patients” value (F3, responder analysis) was “(3.6) %”. For the same molecule, the “MRE ≥19% increase from BL, no. of patients” value (F3, responder analysis) was 3, the “MRE ≥19% reduction from BL, % of patients” value (F3, responder analysis) was “(26.2) %” and the “MRE ≥19% reduction from BL, no. of patients” value (F3, responder analysis) was 22. For the same molecule, the “VCTE/LSM improving ≥25%, % of patients” value (F3, responder analysis) was “(41.1) %”, the “VCTE/LSM improving ≥25%, no. of patients” value (F3, responder analysis) was 67 and the “VCTE/LSM improving ≥30%, % of patients” value (F3, responder analysis) was “(34.4) %”. For the same molecule, the “VCTE/LSM improving ≥30%, no. of patients” value (F3, responder analysis) was 56, the “VCTE/LSM worsening ≥25%, % of patients” value (F3, responder analysis) was “(14.7) %” and the “VCTE/LSM worsening ≥25%, no. of patients” value (F3, responder analysis) was 24. For the same molecule, the “VCTE/LSM worsening ≥30%, % of patients” value (F3, responder analysis) was “(12.9) %”, the “VCTE/LSM worsening ≥30%, no. of patients” value (F3, responder analysis) was 21 and the “FibroScan VCTE/LSM, LS mean CFB” value (F3, week 52) was 2.0 kPa. The “FibroScan VCTE/LSM, LS mean CFB difference from PBO” value (F3, week 52) was −0.86 kPa, the “MRE, LS mean % CFB” value (F3, week 52) was −8.9% and the “MRE, LS mean % CFB difference from PBO” value (F3, week 52) was −8.6%. For the same molecule, the “Liver volume, LS mean % CFB” value (week 16) was −18.8%, the “Liver volume, LS mean % CFB difference from PBO” value (week 16) was 18.5% and the “MRI-PDFF % fat fraction, LS mean % CFB” value (week 16) was −37.8%. The “MRI-PDFF % fat fraction, LS mean % CFB difference from PBO” value (week 16) was −31.4%, the “Spleen volume, LS mean % CFB” value (week 16) was −2.4% and the “Spleen volume, LS mean % CFB difference from PBO” value (week 16) was −3.9%. The “ALT, LS mean % CFB” value (week 48) was −26.6%, the “ALT, LS mean % CFB difference from PBO” value (week 48) was −19.7% and the “ALT, LS mean CFB” value (week 48) was −20.4 U/L. The “AST, LS mean % CFB” value (week 48) was −22.1%, the “AST, LS mean % CFB difference from PBO” value (week 48) was −19.3% and the “AST, LS mean CFB” value (week 48) was −13.9 U/L. The “GGT, LS mean % CFB” value (week 48) was −25.0%, the “GGT, LS mean % CFB difference from PBO” value (week 48) was −28.3% and the “GGT, LS mean CFB” value (week 48) was −31.3 U/L. The “Adiponectin, LS mean CFB” value (week 52) was 0.86 µg/mL, the “Adiponectin, LS mean CFB difference from PBO” value (week 52) was 0.97 µg/mL and the “CK-18, LS mean CFB” value (week 52) was −278.2 U/L. The “CK-18, LS mean CFB difference from PBO” value (week 52) was −134.3 U/L, the “FibroScan CAP, LS mean CFB” value (week 52) was −39.6 dB/m and the “FibroScan CAP, LS mean CFB difference from PBO” value (week 52) was −25.2 dB/m. For the same molecule, the “Liver volume, LS mean % CFB” value (week 52) was −21.6%, the “Liver volume, LS mean % CFB difference from PBO” value (week 52) was −20.5% and the “MRI-PDFF % fat fraction, LS mean % CFB” value (week 52) was −35.4%. For the same molecule, the “MRI-PDFF % fat fraction, LS mean % CFB difference from PBO” value (week 52) was −26.7%, the “Spleen volume, LS mean % CFB” value (week 52) was −5.9% and the “Spleen volume, LS mean % CFB difference from PBO” value (week 52) was −9.0%. For the same molecule, the Enhanced liver fibrosis score, LS mean CFB [2] was -0.34, the “Enhanced liver fibrosis score, LS mean CFB difference from PBO” value [2] was −0.22 and the “PIIINP, LS mean % CFB” value [3] was −10.7%. For the same molecule, the “PIIINP, LS mean % CFB difference from PBO” value [3] was −9.7%, the “PIIINP, LS mean CFB” value [3] was 2.0 ng/mL and the “PIIINP, LS mean CFB difference from PBO” value [3] was -1.4 ng/mL. The “TIMP-I, LS mean % CFB” value [4] was −9.3%, the “TIMP-I, LS mean % CFB difference from PBO” value [4] was −5.7% and the “TIMP-I, LS mean CFB” value [4] was -31.0 ng/mL. The “TIMP-I, LS mean CFB difference from PBO” value [4] was -17.7 ng/mL, the “Hyaluronic acid, LS mean % CFB” value [5] was 17.2% and the “Hyaluronic acid, LS mean % CFB difference from PBO” value [5] was −7.6%. The “Hyaluronic acid, LS mean CFB” value [5] was 1.1 µg/L.
